Results from ChEMBL document CHEMBL4011644, “3-Hydroxy-N'-arylidenepropanehydrazonamides with Halo-Substituted Phenanthrene Scaffolds Cure P. berghei Infected Mice When Administered Perorally” (J Med Chem, 2017).
Active and inactive are the calls of the source. No cut-off for these calls is given here.

Tests used:
Plasmodium falciparum [1] = assay: Antiplasmodial activity against chloroquine-sensitive asexual blood stages of Plasmodium falciparum 3D7 after 72 hrs by HRP2-based ELISA; assay type: functional; conditions: 3D7, 72 h
Plasmodium falciparum [2] = assay: Antiplasmodial activity against multidrug-resistant asexual blood stages of Plasmodium falciparum Dd2 after 72 hrs by HRP2-based ELISA; assay type: functional; conditions: Dd2, 72 h
HepG2 = assay: Cytotoxicity against human HepG2 cells by CellTiterGlo assay; assay type: cell-based
[3] = Selectivity index, ratio of IC50 for human HepG2 cells to IC50 for chloroquine-sensitive asexual blood stages of Plasmodium falciparum 3D7; assay type: toxicity; conditions: read-out: Ratio IC50
Plasmodium berghei [4] = assay: Antiplasmodial activity against Plasmodium berghei infected in NMRI mouse assessed as reduction in parasitemia at 50 mg/kg, ip administered at 4, 24, 48, 72 hrs post infection measured on day 4 post infection by Peter's test relative to control; assay type: functional; design: scale not given: the % may be the effect or the level left
Plasmodium berghei [5] = assay: Antiplasmodial activity against Plasmodium berghei infected in NMRI mouse assessed as mean survival time at 50 mg/kg, ip administered at 4, 24, 48, 72 hrs post infection by Peter's test (reference value: 6 to 7 day); assay type: functional
Plasmodium berghei [6] = assay: Antiplasmodial activity against Plasmodium berghei infected in NMRI mouse assessed as parasite-free mouse at 50 mg/kg, ip administered at 4, 24, 48, 72 hrs post infection measured on day 30 by Peter's test; assay type: functional, organism-based
Plasmodium berghei [7] = assay: Antiplasmodial activity against Plasmodium berghei infected in NMRI mouse assessed as reduction in parasitemia at 50 mg/kg, po administered at 4, 24, 48, 72 hrs post infection measured on day 4 post infection by Peter's test relative to control; assay type: functional; design: scale not given: the % may be the effect or the level left
Plasmodium berghei [8] = assay: Antiplasmodial activity against Plasmodium berghei infected in NMRI mouse assessed as mean survival time at 50 mg/kg, po administered at 4, 24, 48, 72 hrs post infection by Peter's test (reference value: 6 to 7 day); assay type: functional
Plasmodium berghei [9] = assay: Antiplasmodial activity against Plasmodium berghei infected in NMRI mouse assessed as parasite-free mouse at 50 mg/kg, po administered at 4, 24, 48, 72 hrs post infection measured on day 30 by Peter's test; assay type: functional, organism-based
Mus musculus [10] = assay: Toxicity in NMRI mouse infected with Plasmodium berghei assessed as reduction in physical activity at 50 mg/kg, ip administered at 4, 24, 48, 72 hrs post infection; assay type: organism-based; conditions: in vivo
Mus musculus [11] = assay: Toxicity in NMRI mouse infected with Plasmodium berghei assessed as diarrhea at 50 mg/kg, ip administered at 4, 24, 48, 72 hrs post infection; assay type: organism-based; conditions: in vivo
Plasmodium berghei [12] = assay: Antiplasmodial activity against Plasmodium berghei infected in NMRI mouse assessed as reduction in parasitemia at 30 mg/kg, po administered at 4, 24, 48, 72 hrs post infection measured on day 4 by Peter's test relative to control; assay type: functional; design: scale not given: the % may be the effect or the level left
Plasmodium berghei [13] = assay: Antiplasmodial activity against Plasmodium berghei infected in NMRI mouse assessed as mean survival time at 30 mg/kg, po administered at 4, 24, 48, 72 hrs post infection by Peter's test (reference value: 6 to 7 day); assay type: functional
Plasmodium berghei [14] = assay: Antiplasmodial activity against Plasmodium berghei infected in NMRI mouse assessed as parasite-free mouse at 30 mg/kg, po administered at 4, 24, 48, 72 hrs post infection measured on day 30 by Peter's test; assay type: functional, organism-based
Mus musculus [15] = assay: Toxicity in NMRI mouse infected with Plasmodium berghei assessed as overt toxicity at 50 mg/kg, ip administered at 4, 24, 48, 72 hrs post infection; assay type: organism-based; conditions: in vivo
Plasmodium berghei [16] = assay: Antiplasmodial activity against Plasmodium berghei infected in NMRI mouse assessed as reduction in parasitemia at 10 mg/kg, po administered at 4, 24, 48, 72 hrs post infection measured on day 4 by Peter's test relative to control; assay type: functional; design: scale not given: the % may be the effect or the level left
Plasmodium berghei [17] = assay: Antiplasmodial activity against Plasmodium berghei infected in NMRI mouse assessed as mean survival time at 10 mg/kg, po administered at 4, 24, 48, 72 hrs post infection measured on day 4 by Peter's test (reference value: 6 to 7 day); assay type: functional
Plasmodium berghei [18] = assay: Antiplasmodial activity against Plasmodium berghei infected in NMRI mouse assessed as parasite free mouse at 10 mg/kg, po administered at 4, 24, 48, 72 hrs post infection measured on day 4 by Peter's test; assay type: functional, organism-based
Plasmodium berghei [19] = assay: Antiplasmodial activity against Plasmodium berghei infected in NMRI mouse assessed as reduction in parasitemia at 3 mg/kg, po administered at 4, 24, 48, 72 hrs post infection measured on day 4 by Peter's test relative to control; assay type: functional; design: scale not given: the % may be the effect or the level left
Plasmodium berghei [20] = assay: Antiplasmodial activity against Plasmodium berghei infected in NMRI mouse assessed as parasite free mouse at 3 mg/kg, po administered at 4, 24, 48, 72 hrs post infection measured on day 4 by Peter's test; assay type: functional, organism-based
Plasmodium falciparum [21] = assay: Effect on female gamete formation in transgenic GFP-fused Plasmodium falciparum NF54 mature stage-5 gametocytes at 1 uM after 72 hrs under reduced oxygen tension by Mitotracker Red CMH2XRos staining based confocal microscopic method; assay type: functional
Plasmodium falciparum [22] = assay: Effect on male gamete formation in transgenic GFP-fused Plasmodium falciparum NF54 mature stage-5 gametocytes at 1 uM after 72 hrs under reduced oxygen tension by Mitotracker Red CMH2XRos staining based confocal microscopic method; assay type: functional
Plasmodium falciparum [23] = assay: Gametocytocidal activity against transgenic GFP-fused Plasmodium falciparum NF54 […] stage gametocytes after 72 hrs by Mitotracker Red CMH2XRos staining based confocal microscopic method; assay type: functional; conditions: NF54, 72 h
Plasmodium falciparum [24] = assay: Gametocytocidal activity against transgenic GFP-fused Plasmodium falciparum NF54 early stage gametocytes after 72 hrs by Mitotracker Red CMH2XRos staining based confocal microscopic method; assay type: functional; conditions: NF54, 72 h
Plasmodium berghei [25] = assay: […] activity against GFP-fused Plasmodium berghei liver stage parasites infected in human HepG2-A16-CD81-EGFP cells after 48 hrs by luciferase reporter gene assay; assay type: functional
[26] = target: Voltage-gated inwardly rectifying potassium channel KCNH2 (Homo sapiens, UniProt Q12809); assay: Inhibition of human ERG by fluorescence polarization assay
Voltage-gated inwardly rectifying potassium channel KCNH2, sequence (Q12809 whole entry): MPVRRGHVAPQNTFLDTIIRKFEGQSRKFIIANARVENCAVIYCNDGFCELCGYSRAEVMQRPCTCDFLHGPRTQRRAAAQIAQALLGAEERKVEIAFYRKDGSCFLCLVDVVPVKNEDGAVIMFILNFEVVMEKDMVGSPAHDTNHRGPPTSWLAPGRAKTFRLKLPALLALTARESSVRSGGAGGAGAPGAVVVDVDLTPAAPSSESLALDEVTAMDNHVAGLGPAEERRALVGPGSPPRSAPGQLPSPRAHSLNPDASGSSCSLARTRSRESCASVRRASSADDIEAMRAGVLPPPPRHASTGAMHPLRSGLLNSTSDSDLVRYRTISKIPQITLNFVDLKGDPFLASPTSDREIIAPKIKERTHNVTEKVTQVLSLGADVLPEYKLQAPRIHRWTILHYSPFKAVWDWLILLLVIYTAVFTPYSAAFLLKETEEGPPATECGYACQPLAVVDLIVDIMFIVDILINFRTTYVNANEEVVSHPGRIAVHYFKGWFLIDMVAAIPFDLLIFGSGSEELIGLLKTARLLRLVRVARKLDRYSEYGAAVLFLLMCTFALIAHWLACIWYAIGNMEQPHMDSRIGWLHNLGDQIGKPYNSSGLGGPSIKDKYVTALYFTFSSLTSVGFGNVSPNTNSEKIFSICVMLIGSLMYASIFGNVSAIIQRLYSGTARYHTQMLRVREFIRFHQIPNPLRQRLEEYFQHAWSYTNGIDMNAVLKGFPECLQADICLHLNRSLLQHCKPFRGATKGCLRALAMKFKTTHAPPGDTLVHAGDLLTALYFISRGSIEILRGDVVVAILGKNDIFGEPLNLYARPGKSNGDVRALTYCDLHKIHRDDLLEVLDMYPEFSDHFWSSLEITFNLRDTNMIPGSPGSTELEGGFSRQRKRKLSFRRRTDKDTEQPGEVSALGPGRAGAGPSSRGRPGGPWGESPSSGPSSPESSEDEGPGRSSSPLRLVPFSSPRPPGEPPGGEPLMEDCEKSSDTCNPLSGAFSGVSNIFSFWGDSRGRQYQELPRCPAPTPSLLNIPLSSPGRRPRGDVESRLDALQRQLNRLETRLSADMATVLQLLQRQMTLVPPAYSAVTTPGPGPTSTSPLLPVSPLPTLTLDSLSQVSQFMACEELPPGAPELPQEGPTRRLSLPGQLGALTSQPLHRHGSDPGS

SMILES	IC50 (Plasmodium falciparum [1]) [nM]	IC50 (Plasmodium falciparum [2]) [nM]	IC50 (HepG2) [µM]	selectivity ratio [3]	Activity (Plasmodium berghei [4]) [%]	MST (Plasmodium berghei [5]) [days]	Activity (Plasmodium berghei [6])	Activity (Plasmodium berghei [7]) [%]	MST (Plasmodium berghei [8]) [days]	Activity (Plasmodium berghei [9])	Activity (Mus musculus [10])	Activity (Mus musculus [11])	further results
CN1CCN(Cc2cc(/C=N/N=C(\N)CC(O)c3cc4ccccc4c4ccccc34)ccc2O)CC1 (configuration not stated)	5.2	9.2	8.4	1620	97.6	18	inactive	98	16	inactive	Non-Toxic	Non-Toxic	–
N/C(CC(O)c1cc2c(Cl)cc(Cl)cc2c2cc(C(F)(F)F)ccc12)=N\N=C\c1ccc(F)cc1 (configuration not stated)	1.8	2.5	43.8	24300	99.9	25.3	–	99.9	25.3	–	–	–	Activity (Plasmodium berghei [12]): 99.4%; MST (Plasmodium berghei [13]): 13.7 days; Activity (Plasmodium berghei [14]): inactive; Activity (Mus musculus [15]): Non-Toxic; Activity (Plasmodium berghei [16]): 80%; MST (Plasmodium berghei [17]): 5 days; Activity (Plasmodium berghei [18]): inactive; Activity (Plasmodium berghei [19]): <40%; Activity (Plasmodium berghei [20]): inactive; Activity (Plasmodium falciparum [21]): inactive; Activity (Plasmodium falciparum [22]): inactive; IC50 (Plasmodium falciparum [23]): 36 nM; IC50 (Plasmodium falciparum [24]): 31 nM; IC50 (Plasmodium berghei [25]): 13 µM
N/C(CC(O)c1cc2ccccc2c2ccccc12)=N\N=C\c1ccc(F)cc1 (configuration not stated)	–	1.14	> 10	> 1040	–	–	–	–	–	–	–	–	–
N/C(CC(O)c1cc2ccccc2c2ccccc12)=N\N=C\c1ccc(O)c(CN2CCCCC2)c1 (configuration not stated)	2.9	5.4	8.4	2900	98.7	16.7	inactive	99	10.3	inactive	Non-Toxic	Non-Toxic	–
O=C1C(O)=C([C@H]2CC[C@H](c3ccc(Cl)cc3)CC2)C(=O)c2ccccc21 [ATOVAQUONE]	–	–	–	–	–	–	–	–	–	–	–	–	IC50 (Plasmodium berghei [25]): 0.00026 µM
CN(C)Cc1cc(/C=N/N=C(\N)CC(O)c2cc3ccccc3c3ccccc23)ccc1O (configuration not stated)	2.5	0.97	16.7	6680	99.8	22	inactive	99.8	24.7	inactive	Non-Toxic	Non-Toxic	–
CCN(CC)Cc1cc(/C=N/N=C(\N)CC(O)c2cc3c(Cl)cc(Cl)cc3c3cc(C(F)(F)F)ccc23)ccc1O (configuration not stated)	6.9	13.8	42.8	6200	–	–	–	99.8	23	inactive	–	–	Activity (Mus musculus [15]): Non-Toxic; IC50 (Plasmodium falciparum [23]): 345 nM; IC50 (Plasmodium falciparum [24]): 453 nM; IC50 (Plasmodium berghei [25]): 19.1 µM
N/C(CC(O)c1cc2ccccc2c2ccccc12)=N\N=C\C1CCCCC1 (configuration not stated)	330	720	27.4	83	–	–	–	–	–	–	–	–	–
CCN(CC)Cc1cc(/C=N/N=C(\N)CC(O)c2cc3ccccc3c3ccccc23)ccc1O (configuration not stated)	0.97	3.4	14.3	14700	99.7	30	–	99.9	28.2	inactive	Non-Toxic	Non-Toxic	–
CCCCC(/C=N/N=C(\N)CC(O)c1cc2ccccc2c2ccccc12)CCCC (configuration not stated)	60	92	7.6	127	–	–	–	–	–	–	–	–	–
C[C@H]1[C@H](OC(=O)CCC(=O)O)O[C@@H]2O[C@@]3(C)CC[C@H]4[C@H](C)CC[C@@H]1[C@@]24OO3 [ARTESUNATE]	–	–	–	–	–	–	–	–	–	–	–	–	Activity (Plasmodium berghei [12]): 99%; MST (Plasmodium berghei [13]): 10 days; Activity (Plasmodium berghei [14]): inactive
CCN(CC)Cc1cccc(/C=N/N=C(\N)CC(O)c2cc3ccccc3c3ccccc23)c1 (configuration not stated)	25	36	16.6	664	–	–	–	–	–	inactive	–	–	–
CCN(CC)Cc1cc(/C=N/N=C(\N)CC(O)c2cc3ccccc3c3ccccc23)cc(CN(CC)CC)c1O (configuration not stated)	1.5	3.3	14.3	9530	99.8	11	inactive	96.7	11	inactive	Toxic	Toxic	–
CCCCC(CCCC)=N/N=C(\N)CC(O)c1cc2ccccc2c2ccccc12 (configuration not stated)	8.3	12	8.6	1040	64.8	7	inactive	<40	–	inactive	Non-Toxic	Non-Toxic	–
CCN(CC)CCCC(C)Nc1ccnc2cc(Cl)ccc12 (configuration not stated) [CHLOROQUINE]	–	–	–	–	–	–	–	–	–	–	–	–	Activity (Plasmodium berghei [14]): inactive
CCCCN(CCCC)CC(O)c1cc(Cl)cc2c1-c1ccc(Cl)cc1/C2=C/c1ccc(Cl)cc1 (configuration not stated) [LUMEFANTRINE]	–	–	–	–	–	–	–	–	–	–	–	–	IC50 [26]: 377 nM
N/C(CC(O)c1cc2ccccc2c2ccccc12)=N\N=C\c1ccc(O)c(CN2CCOCC2)c1 (configuration not stated)	29	44	3.7	128	91.3	14	inactive	89.7	9.7	inactive	Non-Toxic	Non-Toxic	–
N/C(CC(O)c1cc2ccccc2c2ccccc12)=N\N=C1CCCCCC1 (configuration not stated)	180	140	25.4	139	–	–	–	–	–	inactive	–	–	–
O[C@@H](c1cc(C(F)(F)F)nc2c(C(F)(F)F)cccc12)[C@H]1CCCCN1 [(S,R)-MEFLOQUINE]	–	–	–	–	–	–	–	–	–	–	–	–	Activity (Plasmodium berghei [12]): 99.9%; MST (Plasmodium berghei [13]): 29 days
CCN(CC)Cc1cc(/C=N/N=C(\N)CC(O)c2cc3c(F)cc(F)cc3c3cc(C(F)(F)F)ccc23)ccc1O (configuration not stated)	3.9	6.1	13.4	3440	99.8	30	–	99.9	29.7	–	–	–	Activity (Plasmodium berghei [12]): 99.9%; MST (Plasmodium berghei [13]): 28.3 days; Activity (Plasmodium berghei [14]): inactive; Activity (Mus musculus [15]): Non-Toxic; Activity (Plasmodium berghei [16]): 99.4%; MST (Plasmodium berghei [17]): 10 days; Activity (Plasmodium berghei [18]): inactive; Activity (Plasmodium berghei [19]): <40%; Activity (Plasmodium berghei [20]): inactive; IC50 [26]: 390 nM; Activity (Plasmodium falciparum [21]): inactive; Activity (Plasmodium falciparum [22]): inactive; IC50 (Plasmodium falciparum [23]): 110 nM; IC50 (Plasmodium falciparum [24]): 218 nM; IC50 (Plasmodium berghei [25]): 5.2 µM
